Source: US7750017B2, “Heterocycles” (Bayer Schering Pharma Aktiengesellschaft, priority 2004, dated 2010)
Where a name gives a salt, the structure may show the parent alone.

Columns and labels:
[1] = test system: A431 cells [human epidermoid carcinoma, overexpressing HER1 (EGFR, ErbB1)]; assay: In vitro tumor cell proliferation assay (Cell Titer-Glo luminescent cell viability), A431 cells; type: cell-based; conditions: A-431, 72 h, 72 hours of drug exposure, Cell Titer-Glo readout, read-out: IC50, anti-proliferative activity in A431 cells
From the text: (§1) The utility of the compounds of the present invention can be illustrated, for example, by their activity in vitro in the in vitro tumor cell proliferation assay described below. The link between activity in tumor cell proliferation assays in vitro and anti-tumor activity in the clinical setting has been very well established in the art.
(§2) The following assay is one of the methods by which compound activity relating to treatment of the disorders identified herein can be determined.
(§3) The tumor cell proliferation assay used to test the compounds of the present invention involves a readout called Cell Titer-Glow® Luminescent Cell Viability Assay developed by Promega® (Cunningham, B A “A Growing Issue: Cell Proliferation Assays, Modern kits ease quantification of cell growth” The Scientist 2001, 15(13), 26, and Crouch, S P et al., “The use of ATP bioluminescence as a measure of cell proliferation and cytotoxicity” Journal of Immunological Methods 1993, 160, 81-88), that measures inhibition of cell proliferation. Generation of a luminescent signal corresponds to the amount of ATP present, which is directly proportional to the number of metabolically active (proliferating) cells.
(§4) A431 cells [human epidermoid carcinoma, ATCC # […], overexpressing HER1 (EGFR, ErbB1)] and BT474 [human breast carcinoma, ATCC # CRL-1555, overexpressing HER2 (ErbB2)] were plated at a density of 2.5×10^3 cells/well in 96 well black-clear bottom tissue culture plates in RPMI media with 10% Fetal Bovine Serum and incubated at 37° C. Twenty-four hours later, test compounds are added at a final concentration range from as high 100 μm to as low 64 pM depend on the activities of the tested compounds in serial dilutions at a final DMSO concentration of 0.1%. Cells were incubated for 72 hours at 37° C. in complete growth media after addition of the test compound. After 72 hours of drug exposure, the plates were equilibrated to room temperature for approximately 30 min. Then, using a Promega Cell Titer Glo Luminescent® assay kit, lysis buffer containing 100 microliters of the enzyme luciferase and its substrate, luciferin mixture, was added to each well. The plates were mixed for 2 min on orbital shaker to ensure cell lysis and incubated for 10 min at room temperature to stabilize luminescence signal. The samples were read on VICTOR 2 using Luminescence protocol, and analyzed with Analyze5 software to generate IC50 values.

[2] = test system: BT474 [human breast carcinoma, overexpressing HER2 (ErbB2)]; assay: In vitro tumor cell proliferation assay (Cell Titer-Glo luminescent cell viability), BT474 cells; type: cell-based; conditions: BT-474, 72 h, 72 hours of drug exposure, Cell Titer-Glo readout, read-out: IC50, anti-proliferative activity in BT474 cells
From the text: as §1, §2, §3, §4

Compound	IC50 [1] [µM]	IC50 [2] [µM]
CN(C)CCNC(=O)Cc1ccc2c(c1)sc1ncnc(Nc3ccc4c(cnn4Cc4cccc(F)c4)c3)c12 [Example 126, N-[2-(dimethylamino)ethyl]-2-(4-{[1-(3-fluorobenzyl)-1H-indazol-5-yl]amino}[1]benzothieno[2,3-d]pyrimidin-7-yl)acetamide]	≤ 5	≤ 0.5
OCCc1ccc2c(c1)sc1ncnc(Nc3ccc4c(ccn4Cc4ccccc4)c3)c12 [Example 133, 2-{4-[(1-benzyl-1H-indol-5-yl)amino][1]benzothieno[2,3-d]pyrimidin-7-yl}ethanol]	≤ 50	≤ 0.5
O=C(Cc1ccc2c(c1)sc1ncnc(Nc3ccc(OCc4cccc(F)c4)c(Cl)c3)c12)NCCOCCO [Example 29, 2-[4-({3-chloro-4-[(3-fluorobenzyl)oxy]phenyl}amino)[1]benzothieno[2,3-d]pyrimidin-7-yl]-N-[2-(2-hydroxyethoxy)ethyl] acetamide]	≤ 5	≤ 0.5
O=C(Cc1ccc2c(c1)sc1ncnc(Nc3ccc(OCc4cccc(F)c4)c(Cl)c3)c12)NCC1CCCNC1 (centres unmarked) [Example 33, 2-[4-({3-chloro-4-[(3-fluorobenzyl)oxy]phenyl}amino) [1]benzothieno[2,3-d]pyrimidin-7-yl]-N-(piperidin-3-ylmethyl) acetamide hydrochloride]	≤ 50	≤ 0.5
COCCN(C)C(=O)Cc1ccc2c(c1)sc1ncnc(Nc3ccc(OCc4ccccn4)c(Cl)c3)c12 [Example 103, 2-(4-{[3-chloro-4-(pyridin-2-ylmethoxy)phenyl]amino}[1]benzothieno[2,3-d]pyrimidin-7-yl)-N-(2-methoxyethyl)-N-methylacetamide]	≤ 50	≤ 5
CCN1CCN(CCNC(=O)Cc2ccc3c(c2)sc2ncnc(Nc4ccc(OCc5cscn5)c(Cl)c4)c23)CC1 [Example 146, 2-(4-{[3-chloro-4-(1,3-thiazol-4-ylmethoxy)phenyl]amino}[1]benzothieno[2,3-d]pyrimidin-7-yl)-N-[2-(4-ethylpiperazin-1-yl)ethyl] acetamide]	≤ 50	≤ 0.5
CCNCCc1ccc2c(c1)sc1ncnc(Nc3ccc(OCc4ccccn4)c(Cl)c3)c12 [Example 90, N-[3-chloro-4-(pyridin-2-ylmethoxy)phenyl]-7-[2-(ethylamino)ethyl][1]benzothieno [2,3-d]pyrimidin-4-amine trifluoroacetate]	≤ 5	≤ 0.5
COC1CCN(CCc2ccc3c(c2)sc2ncnc(Nc4ccc(OCc5cccc(F)c5)c(Cl)c4)c23)C1 (centres unmarked) [Example 20, N-{3-chloro-4-[(3-fluorobenzyl)oxy]phenyl}-7-[2-(3-methoxypyrrolidin-1-yl)ethyl][1] benzothieno[2,3-d]pyrimidin-4-amine]	≤ 5	≤ 0.5
O=C(Cc1ccc2c(c1)sc1ncnc(Nc3ccc(OCc4cscn4)c(Cl)c3)c12)NN1CCOCC1 [Example 144, 2-(4-{[3-chloro-4-(1,3-thiazol-4-ylmethoxy)phenyl]amino}[1]benzothieno[2,3-d]pyrimidin-7-yl)-N-morpholin-4-ylacetamide]	≤ 50	≤ 5
OC[C@@H](O)COc1ccc2c(c1)sc1ncnc(Nc3ccc(OCc4cccc(F)c4)c(Cl)c3)c12 [Example 147, ((2R)-3-{[4-({3-chloro-4-[(3-fluorobenzyl)oxy]phenyl}amino)[1]benzothieno[2,3-d]pyrimidin-7-yl]oxy}propane-1,2-diol hydrochloride]	–	≤ 0.5
OCCc1ccc2c(c1)sc1ncnc(Nc3ccc(OCc4ccccn4)c(Cl)c3)c12 [Example 82, 2-(4-{[3-chloro-4-(pyridin-2-ylmethoxy)phenyl]amino}[1]benzothieno[2,3-d]pyrimidin-7-yl) ethanol]	≤ 5	≤ 0.5
OC[C@H](O)[C@@H](O)c1ccc2c(c1)sc1ncnc(Nc3ccc(OCc4cccc(F)c4)c(Cl)c3)c12 [Example 63, (1S,2S)-1-[4-({3-chloro-4-[(3-fluorobenzyl)oxy]phenyl}amino) [1]benzothieno[2,3-d]pyrimidin-7-yl]propane-1,2,3-triol]	≤ 5	≤ 0.5
Fc1cccc(COc2ccc(Nc3ncnc4sc5cc(CCN6CCCCC6)ccc5c34)cc2Cl)c1 [Example 17, N-{3-chloro-4-[(3-fluorobenzyl)oxy]phenyl}-7-(2-piperidin-1-ylethyl)[1] benzothieno[2,3-d]pyrimidin-4-amine]	≤ 5	≤ 0.5
OC[C@H](O)c1ccc2c(c1)sc1ncnc(Nc3ccc(OCc4ccccn4)c(Cl)c3)c12 [Example 75, (1R)-1-(4-{[3-chloro-4-(pyridin-2-ylmethoxy)phenyl]amino}[1]benzothieno[2,3-d]pyrimidin-7-yl)ethane-1,2-diol]	≤ 50	≤ 0.5
O=C(Cc1ccc2c(c1)sc1ncnc(Nc3ccc(OCc4ccccn4)c(Cl)c3)c12)N1CCCC1 [Example 99, N-[3-chloro-4-(pyridin-2-ylmethoxy)phenyl]-7-(2-oxo-2-pyrrolidin-1-ylethyl)[1]benzothieno [2,3-d]pyrimidin-4-amine]	≤ 50	≤ 5
Fc1cccc(COc2ccc(Nc3ncnc4sc5cc(CCN6CCOCC6)ccc5c34)cc2Cl)c1 [Example 10, N-{3-chloro-4-[(3-fluorobenzyl)oxy]phenyl}-7-(2-morpholin-4-ylethyl)[1] benzothieno[2,3-d]pyrimidin-4-amine]	≤ 50	≤ 0.5
COCCN(CCOC)CCc1ccc2c(c1)sc1ncnc(Nc3ccc(OCc4ccccn4)c(Cl)c3)c12 [Example 93, 7-{2-[bis(2-methoxyethyl)amino]ethyl}-N-[3-chloro-4-(pyridin-2-ylmethoxy)phenyl][1]benzothieno [2,3-d]pyrimidin-4-amine trifluoroacetate]	≤ 50	≤ 0.5
Clc1cc(Nc2ncnc3sc4cc(Br)ccc4c23)ccc1OCc1ccccn1 [Example 71, 7-bromo-N-[3-chloro-4-(pyridin-2-ylmethoxy)phenyl][1]benzothieno[2,3-d]pyrimidin-4-amine]	≤ 50	≤ 5
OCC(O)c1ccc2c(c1)sc1ncnc(Nc3ccc(OCc4ccccn4)c(Cl)c3)c12 (racemic) [Example 73, 1-(4-{[3-chloro-4-(pyridin-2-ylmethoxy)phenyl]amino}[1]benzothieno[2,3-d]pyrimidin-7-yl)ethane-1,2-diol]	≤ 5	≤ 0.5
CCOC(=O)Cc1ccc2c(c1)sc1ncnc(Nc3ccc(OCc4ccccn4)c(Cl)c3)c12 [Example 81, ethyl {4-[3-Chloro-4-(pyridin-2-ylmethoxy)-phenylamino]-benzo [4,5]thieno[2,3-d]pyrimidin-7-yl}-acetate trifluoroacetate]	≤ 50	≤ 5
COCCNCCc1ccc2c(c1)sc1ncnc(Nc3ccc(OCc4cccc(F)c4)c(Cl)c3)c12 [Example 9, N-{3-chloro-4-[(3-fluorobenzyl)oxy]phenyl}-7-{2-[(2-methoxyethyl)amino]ethyl}[1] benzothieno[2,3-d]pyrimidin-4-amine]	≤ 5	≤ 0.5
Oc1ccc2c(c1)sc1ncnc(Nc3ccc(OCc4ccccn4)c(Cl)c3)c12 [Example 110, 4-{[3-chloro-4-(pyridin-2-ylmethoxy)phenyl]amino}[1] benzothieno[2,3-d]pyrimidin-7-ol]	≤ 50	≤ 5
CN1CCN(CCc2ccc3c(c2)sc2ncnc(Nc4ccc(OCc5ccccn5)c(Cl)c4)c23)CC1 [Example 91]	–	≤ 0.5
O=C(/C=C/c1ccc2c(c1)sc1ncnc(Nc3ccc(OCc4cccc(F)c4)c(Cl)c3)c12)N1CCOCC1 [Example 55, N-{3-chloro-4-[(3-fluorobenzyl)oxy]phenyl}-7-[(1E)-3-morpholin-4-yl-3-oxoprop-1-en-1-yl][1]benzothieno[2,3-d] pyrimidin-4-amine trifluoroacetate]	≤ 5	–
CS(=O)(=O)CCNC(=O)/C=C/c1ccc2c(c1)sc1ncnc(Nc3ccc(OCc4cccc(F)c4)c(Cl)c3)c12 [Example 53, (2E)-3-[4-({3-chloro-4-[(3-fluorobenzyl)oxy]phenyl}amino) [1]benzothieno[2,3-d]pyrimidin-7-yl]-N-[2-(methylsulfonyl)ethyl]acrylamide]	≤ 50	–
OC[C@@H](O)COc1ccc2c(c1)sc1ncnc(Nc3ccc(OCc4cccc(F)c4)c(Cl)c3)c12 [Example 35, (2R)-3-{[4-({3-chloro-4-[(3-fluorobenzyl)oxy]phenyl}amino)[1]benzothieno[2,3-d]pyrimidin-7-yl]oxy}propane-1,2-diol]	≤ 5	–
